Source: publication PMC4992889, “The viral capping enzyme nsP1: a novel target for the inhibition of chikungunya virus infection” (Scientific Reports, 2016)
Where two headings read alike, the source gives them in different places.

Key:
CHIKV strain 899 [1] = assay: CPE reduction antiviral assay, CHIKV 899 in Vero A cells (MTS/PMS); assay type: cell-based; conditions: Chikungunya virus
[2] = test system: MADTP-314res CHIKV 899 variant; assay: microbe, parasite or virus in culture; assay type: cell-based, Chikungunya virus; conditions: for EC50: Chikungunya virus, read-out: EC50 MADTP-314res variant 3 (resistance selection)
CHIKV [3] = assay: Time-of-addition study, CHIKV RNA reduction; assay type: cell-based, Chikungunya virus; conditions: for reduction in CHIKV RNA: added 6 h post infection, assessed at 24 h post infection
[4] = test system: CHIKV pseudoparticles (CHIKVpp); assay type: cell-based, Chikungunya virus
CHIKV [5] = conditions: cited from earlier work
CHIKV [6] = conditions: clinical studies; cited from earlier work
CHIKV [7] = conditions: cited from earlier work; remark: listed apart in the source
VEEV nsP1 [8] = target: T1, VEEV nsP1 (Venezuelan equine encephalitis virus, UniProt P36328); assay: biochemical; assay type: biochemical
VEEV nsP1 [9] = target: T1, VEEV nsP1; assay: biochemical
CHIKV strain 899 [10] = conditions: cited from earlier work
[11] = test system: CHIKV Venturini (Italy 2008); assay: Viral RNA reduction (qRT-PCR) antiviral assay in Vero E6 cells; assay type: cell-based; conditions: Chikungunya virus, Vero C1008, read-out: EC50, in vitro antiviral activity against CHIKV Venturini (Italy 2008)
CHIKV Congo 95 (2011) = assay: as above; assay type: cell-based; conditions: Chikungunya virus, Vero C1008, read-out: EC50, in vitro antiviral activity against CHIKV Congo 95 (2011)
VEEV TC83 = assay: microbe, parasite or virus in culture; assay type: cell-based; conditions: Venezuelan equine encephalitis virus, Vero C1008, read-out: EC50, in vitro antiviral activity against VEEV TC83
WT CHIKV LS3 = assay: microbe, parasite or virus in culture; assay type: cell-based, Chikungunya virus; conditions: for EC50: Chikungunya virus, Vero C1008, read-out: EC50 WT LS3 (reverse genetics)
in vitro = conditions: African green monkey
Vero cells = conditions: cited from earlier work
[12] = test system: translation of incoming capped CHIKV RNA; assay type: cell-based, Chikungunya virus; conditions: 250 μM
CHIKV RNA synthesis = assay: Metabolic labeling with 3H-uridine of CHIKV RNA in infected Vero E6 cells; assay type: cell-based, Chikungunya virus; conditions: 50–250 μM
[13] = target: CHIKV replication/transcription complexes (RTCs) (Chikungunya virus, UniProt Q8JUX6); assay: In vitro RNA synthesis assay with isolated CHIKV replication/transcription complexes (32P-CTP incorporation); assay type: biochemical; conditions: 250 μM
[14] = read-out: EC50 WT 899 (resistance selection)
[15] = 120 h, read-out: EC50, in vitro antiviral activity against CHIKV 899 (lab)

T1 sequence (P36328 1-535 limits assumed): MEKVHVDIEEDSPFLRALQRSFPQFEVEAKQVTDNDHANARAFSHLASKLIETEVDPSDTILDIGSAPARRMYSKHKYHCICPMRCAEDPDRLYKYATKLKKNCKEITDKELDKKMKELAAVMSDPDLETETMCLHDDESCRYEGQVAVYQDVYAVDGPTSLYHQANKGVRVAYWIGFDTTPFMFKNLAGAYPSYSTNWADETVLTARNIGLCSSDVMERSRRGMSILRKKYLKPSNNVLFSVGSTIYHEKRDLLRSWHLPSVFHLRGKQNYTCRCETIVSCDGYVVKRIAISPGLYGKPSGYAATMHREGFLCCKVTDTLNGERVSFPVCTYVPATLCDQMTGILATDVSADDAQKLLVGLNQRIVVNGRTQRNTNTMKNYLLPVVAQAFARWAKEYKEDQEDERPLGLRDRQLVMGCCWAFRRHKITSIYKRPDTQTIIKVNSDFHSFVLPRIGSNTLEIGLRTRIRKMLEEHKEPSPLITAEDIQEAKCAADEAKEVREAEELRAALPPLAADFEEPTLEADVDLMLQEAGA
CHIKV replication/transcription complexes (RTCs), sequence (Q8JUX6 1864-2474 limits assumed): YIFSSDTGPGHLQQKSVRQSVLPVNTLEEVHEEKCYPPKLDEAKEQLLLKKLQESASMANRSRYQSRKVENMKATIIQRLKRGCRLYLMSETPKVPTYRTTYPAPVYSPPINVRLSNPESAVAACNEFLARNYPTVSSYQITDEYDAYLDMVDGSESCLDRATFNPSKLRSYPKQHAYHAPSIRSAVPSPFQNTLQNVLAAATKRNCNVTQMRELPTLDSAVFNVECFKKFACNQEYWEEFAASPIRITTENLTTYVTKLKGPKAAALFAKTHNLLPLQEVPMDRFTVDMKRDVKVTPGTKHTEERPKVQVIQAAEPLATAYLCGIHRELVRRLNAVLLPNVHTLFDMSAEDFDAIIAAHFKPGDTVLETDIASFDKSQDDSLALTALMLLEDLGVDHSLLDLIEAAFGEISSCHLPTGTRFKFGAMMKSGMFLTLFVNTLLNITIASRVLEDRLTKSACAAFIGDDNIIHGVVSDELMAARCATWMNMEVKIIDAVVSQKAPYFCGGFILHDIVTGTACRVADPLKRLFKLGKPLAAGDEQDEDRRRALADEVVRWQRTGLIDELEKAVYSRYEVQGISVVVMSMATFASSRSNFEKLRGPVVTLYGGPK
CHIKV replication/transcription complexes (RTCs), sequence (Q8JUX6 1-535 partner limits assumed): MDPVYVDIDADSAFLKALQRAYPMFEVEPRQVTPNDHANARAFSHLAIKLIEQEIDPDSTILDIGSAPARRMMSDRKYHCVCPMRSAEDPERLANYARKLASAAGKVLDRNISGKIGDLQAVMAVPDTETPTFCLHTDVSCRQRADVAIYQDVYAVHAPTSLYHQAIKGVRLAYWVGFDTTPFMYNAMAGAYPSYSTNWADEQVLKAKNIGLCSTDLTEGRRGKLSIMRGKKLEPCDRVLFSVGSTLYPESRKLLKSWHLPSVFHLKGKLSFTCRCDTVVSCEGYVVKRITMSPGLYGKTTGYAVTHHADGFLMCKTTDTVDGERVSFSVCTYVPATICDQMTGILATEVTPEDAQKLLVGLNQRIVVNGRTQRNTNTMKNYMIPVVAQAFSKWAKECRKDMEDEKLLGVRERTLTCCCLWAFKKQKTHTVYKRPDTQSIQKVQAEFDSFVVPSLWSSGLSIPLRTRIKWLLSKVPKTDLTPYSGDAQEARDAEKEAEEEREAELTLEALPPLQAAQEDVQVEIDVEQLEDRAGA
CHIKV replication/transcription complexes (RTCs), sequence (Q8JUX6 536-1333 partner limits assumed): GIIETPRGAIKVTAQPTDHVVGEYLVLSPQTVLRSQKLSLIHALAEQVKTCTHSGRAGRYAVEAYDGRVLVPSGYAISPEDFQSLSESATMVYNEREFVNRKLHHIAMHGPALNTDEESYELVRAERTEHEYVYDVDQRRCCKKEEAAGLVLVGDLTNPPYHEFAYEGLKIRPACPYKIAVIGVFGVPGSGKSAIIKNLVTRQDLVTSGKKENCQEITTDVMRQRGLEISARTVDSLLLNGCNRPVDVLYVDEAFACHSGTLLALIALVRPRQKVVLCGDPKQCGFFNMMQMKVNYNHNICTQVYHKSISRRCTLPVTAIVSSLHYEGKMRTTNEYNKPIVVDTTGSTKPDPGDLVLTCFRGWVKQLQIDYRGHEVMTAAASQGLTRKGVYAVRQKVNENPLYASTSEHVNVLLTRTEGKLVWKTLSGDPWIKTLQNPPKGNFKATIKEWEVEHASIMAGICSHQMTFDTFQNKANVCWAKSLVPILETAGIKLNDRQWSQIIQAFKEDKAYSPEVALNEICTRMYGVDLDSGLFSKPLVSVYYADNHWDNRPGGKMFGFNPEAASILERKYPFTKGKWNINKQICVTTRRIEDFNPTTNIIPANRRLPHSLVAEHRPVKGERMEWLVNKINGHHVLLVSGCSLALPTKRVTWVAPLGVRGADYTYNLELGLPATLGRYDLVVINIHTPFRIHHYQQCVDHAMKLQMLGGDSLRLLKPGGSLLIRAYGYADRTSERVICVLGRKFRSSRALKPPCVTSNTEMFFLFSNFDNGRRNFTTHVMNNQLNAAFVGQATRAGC

| Compound | EC50 [2] [µM] | entry of CHIKV pseudoparticles into the host cell [4] | IC50 (VEEV nsP1 [9]) [µM] | EC50 (CHIKV strain 899 [1]; [15]) [µM] | EC50 [11] [µM] | EC50 (CHIKV Congo 95 (2011)) [µM] | EC50 (VEEV TC83) [µM] | EC50 (WT CHIKV LS3) [µM] | CC50 (in vitro) [µM] | also measured |
| --- | --- | --- | --- | --- | --- | --- | --- | --- | --- | --- |
| CCN(CC)CCCC(C)Nc1ccnc2cc(Cl)ccc12 (stereo not drawn) [Chloroquine] | 20 ± 4.7 | inhibited CHIKVpp entry in a dose-dependent manner |  |  |  |  |  |  |  | EC50 (CHIKV strain 899 [1]; [14]): 18 ± 11 µM; cross-resistance of MADTP-314-resistant variants [2]: No cross-resistance; reduction of CHIKV RNA (CHIKV [3]; added 2 h before infection): 2 log10; protective activity in time-of-addition (CHIKV [3]; added at time points later than 1 h p.i.): entirely lost its protective activity; effect on CHIKV replication in vitro (CHIKV [5]): dose- and time-dependent inhibitory effect; efficacy in infected patients (CHIKV [6]): failed to prove its efficacy |
| NC(=O)c1nc(F)c[nH]c1=O [T-705, reference compound] | 34 ± 5.7 |  |  |  |  |  |  |  |  | EC50 (CHIKV strain 899 [1]; [14]): 20 ± 2.7 µM; cross-resistance of MADTP-314-resistant variants [2]: No cross-resistance; reduction in CHIKV RNA (CHIKV [3]): 1.0 log10; anti-CHIKV activity in vitro (CHIKV [5]): exerts anti-CHIKV activity; anti-CHIKV activity in a mouse model (CHIKV [7]): exerts anti-CHIKV activity |
| CCOC(=O)c1c(CSc2ccccc2)n(C)c2cc(Br)c(O)c(CN(C)C)c12 [arbidol] |  | inhibited CHIKVpp entry in a dose-dependent manner |  |  |  |  |  |  |  |  |
| CCCOc1ccc(-n2nnc3c(=O)[nH]c(C)nc32)cc1 [MADTP-346] |  |  | > 1000 |  |  |  |  |  |  | GT activity of VEEV nsP1 (formation of m7GMP-nsP1 complex) (VEEV nsP1 [8]): did not inhibit the GT activity; anti-CHIKV activity in cell culture (CHIKV strain 899 [10]): devoid of anti-CHIKV activity |
| CCc1nc2c(nnn2-c2cccc(OC(C)C)c2)c(=O)[nH]1 [MADTP-372, 5-ethyl-3-(3-isopropoxyphenyl)-3H-[1,2,3]triazolo[4,5-d]-pyrimidin-7(6H)-one] | 255 ± 16 |  | > 1000 | 2.6 ± 1 | 1.4 ± 0.01 | 0.75 ± 0.4 | 6.8 | 4.9 ± 0.6 | > 668 | GT activity of VEEV nsP1 (formation of m7GMP-nsP1 complex) (VEEV nsP1 [8]): inhibited the GT activity of VEEV nsP1 in a concentration-dependent manner; IC50 (VEEV nsP1 [8]): 10 ± 0.3 µM; CC50 (Vero cells): > 400 µM |
| CCc1nc2c(nnn2-c2cccc(C(C)=O)c2)c(=O)[nH]1 [MADTP-393] | 193 ± 14 |  |  | 18 ± 6.4 | 8.2 ± 2.2 | 1.4 ± 0.3 | 35 ± 10 | 15 ± 0.8 | 57 |  |
| CC(=O)c1cccc(-n2nnc3c(=O)[nH]c(C)nc32)c1 [MADTP-314, 3-(3′-acetylphenyl)-5-methyl-3H-[1,2,3]triazolo[4,5-d]pyrimidin-7(6H)-one] | 283 ± 45 | not able to block the entry | > 1000 | 26 ± 11 | 26 ± 2 | 6.4 ± 0.1 | > 40 | 40 ± 5 | > 743 | fold less sensitive, MADTP-314-resistant variants vs wild-type [2]: ~ 11 fold; fold less sensitive, CHIKV LS3 vs CHIKV 899 (WT CHIKV LS3): 1.5 fold; reduction in CHIKV RNA (CHIKV [3]): 1.3 log10; luciferase activity (translation of replication-deficient CHIKV RNA) [12]: comparable to that in untreated control cells; CHIKV RNA synthesis (3H-uridine incorporation) (CHIKV RNA synthesis): did not inhibit CHIKV RNA synthesis; incorporation of 32P-CTP into CHIKV RNA by isolated RTCs [13]: did not inhibit the incorporation |
